The results in this text go back to patent US10154991B2, “Anesthetic compounds and related methods of use” (priority 2012, dated 2018).

Series [1] is described as follows: Octanol:water partition coefficients. It is filed as physicochemical. The conditions noted are these: 10 mM Tris pH 7.4; read-out: Octanol/Water Partition Coefficient ± SD (converted). Here is the method:
One mg of each hypnotic was added to 10 ml of water buffered with 10 mM Tris (pH 7.4) and 0.5 ml or 1 ml of octanol. The mixture was stirred overnight and then centrifuged to more fully separate the organic and aqueous phases. The relative hypnotic concentrations in each phase (i.e. the partition coefficient) were determined by high performance liquid chromatography as described for blood.

The nature of series [2]: In vitro metabolic half-life of hypnotics in rat blood. The series is classed as in vitro ADME. The conditions noted are these: for half-life at 100 μM: Sprague-Dawley, rat; for half-life at 100 μM / metabolic half-life of S form compared with R form: rat blood. As to the method:
On the day of study, whole blood was drawn from the femoral venous catheters of 3 Sprague-Dawley rats (1-2 ml/rat), immediately anticoagulated with heparin (38 U), pooled, and stored on ice. A 1 ml aliquot of blood was warmed at 37° C. for 5 minutes and hypnotic (from a 40 mM in dimethyl sulfoxide stock solution) was added to a final concentration of 100 μM. After the desired incubation time, a 150 μl sample was removed and the metabolic reaction was quenched with 150 μl acetonitrile (Sigma-Aldrich, St. Louis, Mo.). Zero time point samples were prepared by adding 150 μl acetonitrile to blood prior to adding hypnotic (from a 4 mM in dimethyl sulfoxide stock solution). The quenched samples were centrifuged and the resultant supernatant separated and stored at −20° C. until analyzed. Hypnotic concentrations in thawed samples were determined by high performance liquid chromatography using a Varian Prostar system with a 4.6×250 mm Proto 300 C18 column (Nest Group, Southborough, Mass.) with the UV detector set at 240 nm.

For a further series, the system named is rats. As to the kind of experiment: loss of righting reflexes (LORR) assay after IV bolus. The conditions noted are these: for ED50: Rattus norvegicus, iv, read-out: ED50 ± SD; for Slope of Duration vs. Log Dose ± SD: duration of LORR vs log dose, rats; for death of a rat after dosing: one rat, 20 mg/kg dose.
Another series relates to Sprague-Dawley rats. As to the kind of experiment: In vivo sedative/hypnotic testing, IV bolus, rats. Also on record: species or system rat. Here is the method: (§1) Animals were housed in a dedicated room at the vivarium of VivoPath Inc., located at Redstone Center, 55 Union Street, Worcester, Mass. Housing and care was as specified in the USDA Animal Welfare Act (9 CFR, Parts 1, 2, and 3) and as described in the Guide for the Care and Use of Laboratory Animals from the National Research Council. Environmental conditions of housing rooms are set at the following ranges: temperature: 70±7° F. (22±4° C.), humidity: 50±20%, light cycle: 12-hour light/12-hour dark cycle—lights on at 7 am and off at 7 pm., air changes: ten or more air changes per hour with 100% fresh air. The animals' body weights were measured prior to the first dose on each experimental day.
Adult male Sprague-Dawley rats (225-300 g) were purchased from Harlan (South Easton, Mass.).
(§2) Drugs were prepared in either dimethylsulfoxide/saline or saline vehicle or hydroxypropyl-β-cyclodextrin (20% in water, pH 7.0) solution and were administered as an intravenous bolus injection. Animals received 1-4 doses of drug(s) during an experimental day, either ascending doses or different drugs. Doses were administered at intervals equal to the longer of 1 h or 10-times the duration of apparent sedative/hypnotic effects from the previous dose. The sedative/hypnotic properties of the drugs were evaluated by observation of the rats, ranging from mild excitation, mild sedation apparent due to reduced activity, and moderate sedation to hypnosis reflected by loss of righting reflex (LORR, the ability to place rear and hind legs under the body, as well as attenuation/loss of nociceptive reflexes).

The test system of a further series is ICR mice. Put plainly: In vivo sedative/hypnotic testing, IV bolus, mice. Also on record: species or system mouse. Here is the method: as §1
Adult ICR mice (20-30 g) were purchased from Harlan (South Easton, Mass.). Drugs were administered as intravenous bolus injection in a tail vein.
as §2

Another series concerns dogs and monkeys. As to the kind of experiment: Preliminary studies of duration of action in dogs and monkeys. The series is classed as in vivo. The conditions noted are these: large animals, similar to that in rats.
For another series, the system named is beagle dogs. The conditions noted are these: dog, in vivo. As to the method:
A pilot study was conducted in dogs to assess anesthesia induced by cyclopropyl-MOC-metomidate continuous infusion without a bolus induction dosing. Two dogs received cyclopropyl-MOC-metomidate as a 1 mg/kg/min IV infusion without prior bolus administration.
Anesthesia induction was determined using the methods described above.
Etomidate was administered to dogs at IV bolus doses ranging from 0.25 to 2 mg/kg. Anesthesia in the dogs was measured as described above. […] The bolus dose of 2 mg/kg was adopted to induce anesthesia prior to subsequent continuous infusions.
Propofol was administered to dogs as an IV bolus dose of 5 mg/kg to induce anesthesia followed by a continuous infusion at 0.4 mg/kg/min.

[3] abbreviates: pooled heparinised whole blood, 37° C., 100 μM, read-out: Blood Half-Life (95% CI).
[4] abbreviates: pooled heparinised whole blood, bound based on the lower limit of quantification, read-out: metabolic half-life in rat blood (converted).
Setting [5] is: 37° C., 100 μM, read-out: Blood Half-Life (95% CI).

Like-named read-outs stand apart in the source and are kept apart here.

`COC(=O)[C@H](C)COC(=O)c1cncn1[C@H](C)c1ccccc1` [α-(R)- methyl- methoxycarbonyl etomidate, α-R-methyl-methoxycarbonyl etomidate]: the logD in series [1] is 2.83. Also, the half-life at 100 μM in series [2] (setting [3]) amounted to 11.4 s. Besides, in the series on rats, the ED50 came out at 5.2 ± 0.5 mg/kg.

On to `COC(=O)[C@@H](C)OC(=O)c1cncn1[C@H](C)c1ccccc1` [(R)-methyl- methoxycarbonyl metomidate, R-methyl-methoxycarbonyl metomidate], for which the logD in series [1] was 2.58. Moreover, the half-life at 100 μM in series [2] (setting [3]) is below 1.8 s; in series [2] (setting [4]), below 2 s. Also, the ED50 with rats is 9.6 ± 1.9 mg/kg.

In the case of `COC(=O)C[C@H](C)OC(=O)c1cncn1[C@H](C)c1ccccc1` [β-(S)- methyl- methoxycarbonyl etomidate, β-S-methyl-MOC-etomidate], the logD in series [1] was 2.68. Further, in series [2] (setting [3]), the half-life at 100 μM is 43.2 s. Further, the 50% effective dose (ED50) in the series on rats was 2.9 ± 0.3 mg/kg.

As for `COC(=O)CCOC(=O)c1cncn1[C@H](C)c1ccccc1` [Methoxycarbonyl etomidate, methoxycarbonyl etomidate, reference compound], the logD in series [1] was 2.28. For the same compound, the half-life at 100 μM in series [2] (setting [3]) was 24.6 s; in series [2] (setting [5]), 8.4 s; in series [2] (bound based on the lower limit of quantification, read-out: metabolic half-life in rat blood (converted)), 20 s. Further, in the series on Sprague-Dawley rats (IV bolus, doses as in the cell), the Rat response entry is given as “Sedation/hypnosis induced at 8 &”. For the same compound, the ED50 in the series with Sprague-Dawley rats (Rattus norvegicus, sedation/hypnosis, IV) is around 8 mg/kg; with rats, 5.3 ± 1.5 mg/kg; in the series on ICR mice (Mus musculus, sedation/hypnosis, IV), around 10 mg/kg. The “slope of duration of LORR vs logarithm of dose” value in the series with Sprague-Dawley rats (rats) and in the series with ICR mice (mice) was “approximately 1.0” in each case. Further, the “Slope of Duration vs. Log Dose ± SD” value in the series with rats is 1.0±0.3 min/(log mg/kg). This compound registered a duration of action in the series on dogs and monkeys of 1 to 2 min.

As for `COC(=O)[C@H](C)OC(=O)c1cncn1[C@H](C)c1ccccc1` [(S)-methyl- methoxycarbonyl metomidate, S-methyl-methoxycarbonyl metomidate], the logD in series [1] is 2.52. For the same compound, in series [2] (setting [3]), the half-life at 100 μM came to 8.4 s. Further, in series [2], the “metabolic half-life of S form compared with R form” value was “at least four-fold longer”. Besides, the ED50 in the series with rats was 3.5 ± 0.4 mg/kg.

As for `COC(=O)CC(C)(C)OC(=O)c1cncn1[C@H](C)c1ccccc1` [β-dimethyl- methoxycarbonyl etomidate, β-dimethyl-MOC-etomidate], the logD in series [1] was 3.2. The half-life at 100 μM in series [2] (setting [3]) was 1400 s. In the series on rats, the ED50 is 1.9 ± 0.3 mg/kg.

For `COC(=O)[C@@H](C)COC(=O)c1cncn1[C@H](C)c1ccccc1` [α-(S)- methyl- methoxycarbonyl etomidate, α-S-methyl-methoxycarbonyl etomidate], the logD in series [1] was 2.72. In series [2] (setting [3]), the half-life at 100 μM stood at 45.6 s. Also, the “metabolic half-life of S form compared with R form” value in series [2] was “at least four-fold longer”. Besides, in the series on rats, the ED50 is 3.1 ± 0.4 mg/kg.

Consider `COC(=O)C(C)(C)OC(=O)c1cncn1[C@H](C)c1ccccc1` [Dimethyl- methoxycarbonyl metomidate, dimethyl-methoxycarbonyl metomidate], for which the logD in series [1] was 2.82. In addition, the “in vitro metabolic half-life compared with methoxycarbonyl etomidate and etomidate” value in series [2] is “intermediate between those of methoxycarbonyl etomidate and etomidate”. Besides, the half-life at 100 μM in series [2] (setting [5]) is 522 s. Besides, in the series with rats (20 mg/kg dose vs ED50), the “lethal dose relative to ED50 for LORR” value came to 28 fold. Moreover, in the series on rats, the ED50 was found to be 0.72 ± 0.16 mg/kg and the “death of a rat after dosing” value is “died”. Besides, in the series with rats (rat, in vivo), the “hypnotic potency compared with methoxycarbonyl etomidate and etomidate” value is “nearly an order of magnitude higher than that of methoxycarbonyl etomidate and similar to that of etomidate”; the “in vivo duration of action compared with methoxycarbonyl etomidate and etomidate” value was “intermediate between those of methoxycarbonyl etomidate and etomidate”.

As to `COC(=O)C(C)(C)COC(=O)c1cncn1[C@H](C)c1ccccc1` [α-dimethyl- methoxycarbonyl etomidate, α-dimethyl-MOC-etomidate], in series [1], the logD was 3.35. For the same compound, the half-life at 100 μM in series [2] (setting [3]) was determined as 156 s. The ED50 in the series on rats stood at 2.4 ± 1 mg/kg.

Consider `CC(C)c1cccc(C(C)C)c1O` [Propofol], for which, in the series on beagle dogs, the “emergence from anesthesia after the end of infusion” value is “approximately 15 minutes”, the “recovery of normal behavior after infusion” value was at least 30 min and the “recovery time relative to cyclopropyl-MOC-metomidate infusion of the same duration” value is given as “approximately 3 fold”.

For `COC(=O)[C@H](OC(=O)c1cncn1[C@H](C)c1ccccc1)C(C)C` [S-isopropyl-methoxycarbonyl metomidate], the logD in series [1] is 3.46. For the same compound, in series [2] (setting [3]), the half-life at 100 μM amounted to 930 s. Moreover, in series [2], the “metabolic half-life of S form compared with R form” value is “two orders of magnitude longer”. In addition, in the series on rats, the ED50 was 1.2 ± 0.19 mg/kg and the “Slope of Duration vs. Log Dose ± SD” value is 12.1±1.1 min/(log mg/kg).

As to `COC(=O)COC(=O)c1cncn1[C@H](C)c1ccccc1` [Methoxycarbonyl metomidate, methoxycarbonyl metomidate], the logD in series [1] was 2.2. The half-life at 100 μM in series [2] (setting [3]) was below 1.8 s; in series [2] (setting [4]), below 2 s. Also, the ED50 with rats worked out at 11.1 ± 0.8 mg/kg.

For `COC(=O)c1cncn1[C@H](C)c1ccccc1` [Metomidate, reference compound], the logD in series [1] is 2.58. Moreover, the half-life at 100 μM in series [2] (setting [3]) came out at 8580 s. The ED50 in the series on rats worked out at 0.73 ± 0.5 mg/kg.

As for `COC(=O)[C@@H](OC(=O)c1cncn1[C@H](C)c1ccccc1)C(C)C` [R-isopropyl-methoxycarbonyl metomidate], the logD in series [1] is 3.58. Further, the half-life at 100 μM in series [2] (setting [3]) was determined as 9 s. Moreover, in the series on rats, the median effective dose (ED50) stood at 3.6 ± 0.8 mg/kg and the “death of a rat after dosing” value was “died after receiving a 20 mg/kg dose”.

For the compound `COC(=O)C[C@@H](C)OC(=O)c1cncn1[C@H](C)c1ccccc1` [β-(R)- methyl- methoxycarbonyl etomidate, β-R-methyl-MOC-etomidate], in series [1], the logD is 2.7. The half-life at 100 μM in series [2] (setting [3]) was found to be 54.6 s. The 50% effective dose (ED50) with rats was 3.5 ± 0.6 mg/kg.

Usually half-life stands for the time in which the quantity being followed falls by half. What is called ED50 is the dose at which the effect has come halfway, by size or by number of responders.
